The values below are quoted from earlier work in US20220119489A1, “COMPOSITIONS AND METHODS FOR TREATING MUSCULAR DYSTROPHY AND RELATED DISORDERS” (CHILDREN'S MEDICAL CENTER CORPORATION, priority 2019, published 2022).

For data set [1], the system named is CD82. The note with it: stated as previously shown, no test described.
The test system of data set [2] is CD82. As to conditions: Pompe disease patients under treatment.

Consider `C[C@]12COC(=O)C[C@@H]1CC[C@@H]1[C@@H]2CC[C@@]2(C)[C@H]1CC[C@]2(C)O` [oxandrolone], for which the “expression of CD82” value with CD82 [1] is given as “increase expression of CD82”. With `CC(=O)C(=O)[O-].[Na+]` [sodium pyruvate], the “expression of CD82” value in the data set on CD82 [1] is on record as “increase expression of CD82”.

Regarding “recombinant human lysosomal acid alpha glucosidase: recombinant enzyme used to treat Pompe disease patients”, in the data set with CD82 [2], the “increase of muscle CD82 expression compared to baseline levels” value is on record as 25-50%.
